In ChEMBL document CHEMBL5653615 (J Biol Chem, 2013):

Assays:
[1] = biological target: Mitogen-activated protein kinase 3 (Homo sapiens) (UniProt P27361); assay: Inhibition of human ERK1 at 18.6 nM by HotSpot assay relative to control
[2] = biological target: Mitogen-activated protein kinase 10 (Homo sapiens) (UniProt P53779); assay: Inhibition of human JNK3 at 18.6 nM by HotSpot assay relative to control
[3] = biological target: T1, Serine/threonine-protein kinase D3 (Homo sapiens) (UniProt O94806); assay: Inhibition of human PRKD3 at 18.6 nM by HotSpot assay relative to control
T1 sequence (whole entry): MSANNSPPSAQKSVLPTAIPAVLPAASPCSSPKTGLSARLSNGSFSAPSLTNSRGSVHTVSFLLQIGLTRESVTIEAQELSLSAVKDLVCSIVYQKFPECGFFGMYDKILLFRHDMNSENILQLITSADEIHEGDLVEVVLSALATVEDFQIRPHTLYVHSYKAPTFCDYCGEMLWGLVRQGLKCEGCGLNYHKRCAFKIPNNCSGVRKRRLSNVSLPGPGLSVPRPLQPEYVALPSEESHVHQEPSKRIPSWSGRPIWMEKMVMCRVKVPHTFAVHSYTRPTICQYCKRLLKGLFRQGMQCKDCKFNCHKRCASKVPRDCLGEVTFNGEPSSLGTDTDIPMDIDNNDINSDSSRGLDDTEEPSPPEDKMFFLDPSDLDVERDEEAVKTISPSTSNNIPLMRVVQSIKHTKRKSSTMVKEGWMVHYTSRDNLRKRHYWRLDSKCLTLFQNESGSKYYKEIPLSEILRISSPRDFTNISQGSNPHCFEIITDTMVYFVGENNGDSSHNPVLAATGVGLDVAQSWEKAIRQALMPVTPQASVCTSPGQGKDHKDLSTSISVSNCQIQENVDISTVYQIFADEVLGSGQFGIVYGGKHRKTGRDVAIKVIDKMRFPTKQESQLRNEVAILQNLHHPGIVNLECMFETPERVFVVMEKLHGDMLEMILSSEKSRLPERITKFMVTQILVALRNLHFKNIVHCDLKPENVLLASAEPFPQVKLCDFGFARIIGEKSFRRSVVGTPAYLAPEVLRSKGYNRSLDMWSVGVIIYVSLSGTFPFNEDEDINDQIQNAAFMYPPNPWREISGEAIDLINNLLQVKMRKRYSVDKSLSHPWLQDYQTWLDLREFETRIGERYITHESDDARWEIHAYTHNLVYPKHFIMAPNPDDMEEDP

[4] = biological target: CDK9/cyclin T1 (Homo sapiens) (UniProt O60563+P50750); assay: Inhibition of human CDK9/cyclin T1 at 18.6 nM by HotSpot assay relative to control; assay type: protein-complex assay
[5] = biological target: PAS domain-containing serine/threonine-protein kinase (Homo sapiens) (UniProt Q96RG2); assay: Inhibition of human PASK at 1.82 nM by HotSpot assay relative to control
PAS domain-containing serine/threonine-protein kinase (Homo sapiens), sequence (Q96RG2 whole entry, the tested form may be a part): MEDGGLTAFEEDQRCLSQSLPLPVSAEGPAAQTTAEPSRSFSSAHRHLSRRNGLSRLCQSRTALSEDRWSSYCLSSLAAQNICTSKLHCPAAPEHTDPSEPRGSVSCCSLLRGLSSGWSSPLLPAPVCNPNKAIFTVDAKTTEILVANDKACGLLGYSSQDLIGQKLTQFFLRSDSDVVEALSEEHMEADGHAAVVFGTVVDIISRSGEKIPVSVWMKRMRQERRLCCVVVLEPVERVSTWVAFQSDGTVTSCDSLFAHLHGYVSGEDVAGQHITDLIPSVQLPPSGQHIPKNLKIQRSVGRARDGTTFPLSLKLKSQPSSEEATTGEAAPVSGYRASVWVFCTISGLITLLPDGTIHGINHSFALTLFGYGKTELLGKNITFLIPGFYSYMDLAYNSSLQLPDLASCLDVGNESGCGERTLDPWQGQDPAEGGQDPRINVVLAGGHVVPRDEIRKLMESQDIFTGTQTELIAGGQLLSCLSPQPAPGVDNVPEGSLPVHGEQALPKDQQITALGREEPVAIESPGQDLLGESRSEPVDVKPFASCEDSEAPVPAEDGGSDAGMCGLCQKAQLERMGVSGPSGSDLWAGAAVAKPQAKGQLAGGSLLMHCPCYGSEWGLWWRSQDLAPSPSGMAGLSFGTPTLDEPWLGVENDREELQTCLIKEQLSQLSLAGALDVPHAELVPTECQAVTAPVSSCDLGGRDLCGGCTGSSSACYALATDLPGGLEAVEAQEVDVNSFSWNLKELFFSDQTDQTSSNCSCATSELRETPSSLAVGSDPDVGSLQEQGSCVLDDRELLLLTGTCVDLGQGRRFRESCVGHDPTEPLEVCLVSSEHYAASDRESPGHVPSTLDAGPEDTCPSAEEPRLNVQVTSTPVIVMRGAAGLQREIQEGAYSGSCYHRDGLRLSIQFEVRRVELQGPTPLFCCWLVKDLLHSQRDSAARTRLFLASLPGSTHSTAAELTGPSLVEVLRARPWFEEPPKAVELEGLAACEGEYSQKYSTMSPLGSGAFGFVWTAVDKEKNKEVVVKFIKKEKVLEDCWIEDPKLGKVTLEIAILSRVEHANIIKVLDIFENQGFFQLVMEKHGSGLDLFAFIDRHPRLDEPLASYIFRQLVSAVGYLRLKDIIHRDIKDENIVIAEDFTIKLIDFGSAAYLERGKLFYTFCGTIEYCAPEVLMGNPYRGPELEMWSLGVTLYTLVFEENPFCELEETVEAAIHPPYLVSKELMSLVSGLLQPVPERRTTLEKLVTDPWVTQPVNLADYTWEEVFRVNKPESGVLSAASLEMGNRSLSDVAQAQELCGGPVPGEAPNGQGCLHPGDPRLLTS

[6] = biological target: Mitogen-activated protein kinase kinase kinase kinase 4 (Homo sapiens) (UniProt O95819); assay: Inhibition of human HGK at 1.82 nM by HotSpot assay relative to control
Mitogen-activated protein kinase kinase kinase kinase 4 (Homo sapiens), sequence (O95819 2-1239 limits assumed): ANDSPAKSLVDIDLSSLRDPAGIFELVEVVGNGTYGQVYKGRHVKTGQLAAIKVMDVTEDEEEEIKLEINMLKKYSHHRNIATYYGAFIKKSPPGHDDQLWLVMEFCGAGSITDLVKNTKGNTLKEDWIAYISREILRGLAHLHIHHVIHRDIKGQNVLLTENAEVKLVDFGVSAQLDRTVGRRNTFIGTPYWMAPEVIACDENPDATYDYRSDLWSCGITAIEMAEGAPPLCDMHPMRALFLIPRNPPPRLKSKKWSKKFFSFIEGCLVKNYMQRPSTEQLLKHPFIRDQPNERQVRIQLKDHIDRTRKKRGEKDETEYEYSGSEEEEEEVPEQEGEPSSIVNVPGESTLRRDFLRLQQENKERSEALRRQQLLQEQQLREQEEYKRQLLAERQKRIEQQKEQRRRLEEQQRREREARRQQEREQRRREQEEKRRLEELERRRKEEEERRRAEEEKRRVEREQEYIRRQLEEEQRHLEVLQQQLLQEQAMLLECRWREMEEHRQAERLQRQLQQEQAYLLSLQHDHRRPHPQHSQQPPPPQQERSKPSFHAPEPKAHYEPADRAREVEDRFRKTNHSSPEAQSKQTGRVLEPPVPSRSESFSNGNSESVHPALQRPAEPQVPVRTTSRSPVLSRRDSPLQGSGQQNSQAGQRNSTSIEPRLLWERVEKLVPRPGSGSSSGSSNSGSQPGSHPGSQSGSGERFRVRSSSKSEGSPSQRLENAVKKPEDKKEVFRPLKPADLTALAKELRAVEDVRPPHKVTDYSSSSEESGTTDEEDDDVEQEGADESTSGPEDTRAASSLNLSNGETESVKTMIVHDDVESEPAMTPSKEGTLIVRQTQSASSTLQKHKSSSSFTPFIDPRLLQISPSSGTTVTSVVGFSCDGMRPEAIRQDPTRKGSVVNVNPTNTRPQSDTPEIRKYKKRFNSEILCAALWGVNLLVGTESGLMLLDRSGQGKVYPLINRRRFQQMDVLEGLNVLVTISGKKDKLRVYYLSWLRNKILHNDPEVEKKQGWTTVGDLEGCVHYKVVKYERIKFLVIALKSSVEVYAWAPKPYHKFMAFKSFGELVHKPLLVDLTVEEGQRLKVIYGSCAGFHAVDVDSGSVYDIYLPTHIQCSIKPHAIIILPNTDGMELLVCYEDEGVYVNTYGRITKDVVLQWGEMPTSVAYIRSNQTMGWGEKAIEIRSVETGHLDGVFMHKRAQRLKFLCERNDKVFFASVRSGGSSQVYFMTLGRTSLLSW

[7] = biological target: Serine/threonine-protein kinase B-raf (Homo sapiens) (UniProt P15056); assay: Inhibition of human BRAF at 1.82 nM by HotSpot assay relative to control
[8] = biological target: T2, Mitogen-activated protein kinase 13 (Homo sapiens) (UniProt O15264); assay: Inhibition of human MAPK13 at 1.82 nM by HotSpot assay relative to control
T2 sequence (whole entry): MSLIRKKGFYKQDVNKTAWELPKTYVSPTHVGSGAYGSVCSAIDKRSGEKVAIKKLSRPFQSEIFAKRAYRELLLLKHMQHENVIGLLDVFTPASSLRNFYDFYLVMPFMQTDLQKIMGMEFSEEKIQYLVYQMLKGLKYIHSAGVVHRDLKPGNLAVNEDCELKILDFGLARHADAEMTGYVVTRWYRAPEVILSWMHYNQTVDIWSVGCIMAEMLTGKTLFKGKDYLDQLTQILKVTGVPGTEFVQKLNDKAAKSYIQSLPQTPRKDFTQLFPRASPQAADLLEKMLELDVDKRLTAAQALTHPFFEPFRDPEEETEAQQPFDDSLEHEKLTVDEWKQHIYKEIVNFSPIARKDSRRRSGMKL

[9] = biological target: SRSF protein kinase 1 (Homo sapiens) (UniProt Q96SB4); assay: Inhibition of human SRPK1 at 1.82 nM by HotSpot assay relative to control
SRSF protein kinase 1 (Homo sapiens), sequence (Q96SB4 whole entry): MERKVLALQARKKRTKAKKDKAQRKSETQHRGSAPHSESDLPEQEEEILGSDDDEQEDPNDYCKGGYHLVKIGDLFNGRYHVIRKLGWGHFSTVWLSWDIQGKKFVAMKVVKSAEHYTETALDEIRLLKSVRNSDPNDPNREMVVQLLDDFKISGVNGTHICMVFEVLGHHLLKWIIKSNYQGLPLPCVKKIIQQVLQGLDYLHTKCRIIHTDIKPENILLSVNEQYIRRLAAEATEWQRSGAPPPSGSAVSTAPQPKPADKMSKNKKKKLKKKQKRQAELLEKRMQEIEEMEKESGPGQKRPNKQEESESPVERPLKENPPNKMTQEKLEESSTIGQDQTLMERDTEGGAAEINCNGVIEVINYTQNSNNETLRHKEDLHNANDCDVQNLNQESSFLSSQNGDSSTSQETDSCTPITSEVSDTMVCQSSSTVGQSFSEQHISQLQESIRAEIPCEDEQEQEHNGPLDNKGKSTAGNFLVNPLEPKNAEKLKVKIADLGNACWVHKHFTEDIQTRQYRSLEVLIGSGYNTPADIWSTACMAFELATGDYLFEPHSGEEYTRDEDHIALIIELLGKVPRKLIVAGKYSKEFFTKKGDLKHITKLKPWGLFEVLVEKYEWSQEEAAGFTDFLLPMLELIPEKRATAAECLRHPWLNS

[10] = biological target: T3, Serine/threonine-protein kinase Nek9 (Homo sapiens) (UniProt Q8TD19); assay: Inhibition of human NEK9 at 1.82 nM by HotSpot assay relative to control
T3 sequence (whole entry): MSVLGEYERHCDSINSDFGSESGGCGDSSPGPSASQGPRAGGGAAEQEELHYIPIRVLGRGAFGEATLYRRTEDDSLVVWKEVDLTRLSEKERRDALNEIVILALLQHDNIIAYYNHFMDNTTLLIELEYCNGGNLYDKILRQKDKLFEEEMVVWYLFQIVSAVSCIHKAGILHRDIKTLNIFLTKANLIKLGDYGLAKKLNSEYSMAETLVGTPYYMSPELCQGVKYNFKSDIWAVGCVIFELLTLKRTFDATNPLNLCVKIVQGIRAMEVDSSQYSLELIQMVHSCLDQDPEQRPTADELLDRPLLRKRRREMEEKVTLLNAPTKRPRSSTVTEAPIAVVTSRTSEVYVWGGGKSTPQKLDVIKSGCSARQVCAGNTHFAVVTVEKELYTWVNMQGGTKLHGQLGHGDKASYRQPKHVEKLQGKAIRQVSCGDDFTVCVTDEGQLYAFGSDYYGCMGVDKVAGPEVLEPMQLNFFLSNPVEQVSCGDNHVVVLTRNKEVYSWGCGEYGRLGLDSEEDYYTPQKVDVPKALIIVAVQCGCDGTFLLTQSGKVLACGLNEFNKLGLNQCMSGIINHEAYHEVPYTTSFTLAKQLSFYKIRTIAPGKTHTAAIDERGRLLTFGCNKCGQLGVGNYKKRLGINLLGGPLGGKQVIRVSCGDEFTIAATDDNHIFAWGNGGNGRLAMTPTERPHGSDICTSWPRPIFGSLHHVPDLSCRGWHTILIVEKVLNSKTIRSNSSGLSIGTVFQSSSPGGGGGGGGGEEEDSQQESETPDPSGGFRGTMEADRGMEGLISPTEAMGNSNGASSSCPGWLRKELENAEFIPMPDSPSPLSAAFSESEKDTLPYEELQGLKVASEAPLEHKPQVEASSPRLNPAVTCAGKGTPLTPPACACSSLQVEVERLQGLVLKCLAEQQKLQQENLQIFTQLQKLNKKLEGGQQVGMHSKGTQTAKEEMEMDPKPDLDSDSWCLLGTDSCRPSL

[11] = biological target: Dual specificity protein kinase CLK2 (Homo sapiens) (UniProt P49760); conditions: dose 1.82 nM
Dual specificity protein kinase CLK2 (Homo sapiens), sequence (P49760 whole entry, looked up): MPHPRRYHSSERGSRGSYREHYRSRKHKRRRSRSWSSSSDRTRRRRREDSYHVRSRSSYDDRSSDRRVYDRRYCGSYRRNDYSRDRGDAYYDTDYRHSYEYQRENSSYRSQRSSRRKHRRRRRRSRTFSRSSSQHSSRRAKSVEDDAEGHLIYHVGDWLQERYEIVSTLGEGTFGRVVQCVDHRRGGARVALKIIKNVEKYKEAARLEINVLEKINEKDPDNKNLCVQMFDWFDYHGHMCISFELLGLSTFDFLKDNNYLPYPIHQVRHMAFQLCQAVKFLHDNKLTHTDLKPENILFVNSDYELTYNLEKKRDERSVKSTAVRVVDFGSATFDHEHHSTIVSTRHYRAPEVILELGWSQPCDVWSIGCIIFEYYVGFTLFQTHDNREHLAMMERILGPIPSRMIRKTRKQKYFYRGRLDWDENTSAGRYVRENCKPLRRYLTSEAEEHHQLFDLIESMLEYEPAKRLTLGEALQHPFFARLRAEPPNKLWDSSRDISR
Description: Inhibition of human CLK2 at 1.82 nM by HotSpot assay relative to control

[12] = biological target: Cyclin-dependent kinase 4/cyclin D1 (Homo sapiens) (UniProt P11802+P24385); assay: Inhibition of human CDK4/cyclin D1 at 1.82 nM by HotSpot assay relative to control; assay type: protein-complex assay

Mitogen-activated protein kinase 10 (Homo sapiens), sequence (P53779 whole entry): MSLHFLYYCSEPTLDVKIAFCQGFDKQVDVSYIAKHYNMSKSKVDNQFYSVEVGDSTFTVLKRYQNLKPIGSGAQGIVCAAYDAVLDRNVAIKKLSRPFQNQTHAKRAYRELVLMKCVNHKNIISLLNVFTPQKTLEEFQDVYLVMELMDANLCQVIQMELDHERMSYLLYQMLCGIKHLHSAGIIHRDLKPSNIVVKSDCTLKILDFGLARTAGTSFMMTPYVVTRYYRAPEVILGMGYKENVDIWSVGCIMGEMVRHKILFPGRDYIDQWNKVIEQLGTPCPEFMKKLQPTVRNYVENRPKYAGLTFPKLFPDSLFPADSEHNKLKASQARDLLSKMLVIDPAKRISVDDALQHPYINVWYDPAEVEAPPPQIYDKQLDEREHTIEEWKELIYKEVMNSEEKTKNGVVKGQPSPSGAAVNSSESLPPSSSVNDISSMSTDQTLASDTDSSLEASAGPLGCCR
Mitogen-activated protein kinase 3 (Homo sapiens), sequence (P27361 whole entry): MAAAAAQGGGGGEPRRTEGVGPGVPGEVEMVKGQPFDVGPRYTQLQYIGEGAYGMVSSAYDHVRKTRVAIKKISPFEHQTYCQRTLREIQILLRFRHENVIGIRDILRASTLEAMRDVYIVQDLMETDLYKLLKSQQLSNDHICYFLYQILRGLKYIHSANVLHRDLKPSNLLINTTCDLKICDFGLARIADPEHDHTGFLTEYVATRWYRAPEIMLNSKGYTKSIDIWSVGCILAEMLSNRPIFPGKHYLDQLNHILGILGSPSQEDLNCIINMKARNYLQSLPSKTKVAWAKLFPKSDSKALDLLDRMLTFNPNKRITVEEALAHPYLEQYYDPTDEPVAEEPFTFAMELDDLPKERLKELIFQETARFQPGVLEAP

| inhibition [1] [%] | inhibition [2] [%] | inhibition [3] [%] | inhibition [4] [%] | inhibition [5] [%] | inhibition [6] [%] | inhibition [7] [%] | inhibition [8] [%] | inhibition [9] [%] | inhibition [11] [%] | inhibition [12] [%] | Structure (SMILES) | inhibition [10] [%] |
| --- | --- | --- | --- | --- | --- | --- | --- | --- | --- | --- | --- | --- |
| -9.66 | -3.24 | 9.14 | 2.42 | – | – | – | – | – | – | – | C[C@]1(O)C[C@@H](c2nc(-c3ccc4ccc(-c5ccccc5)nc4c3)c3c(N)nccn32)C1 | – |
| – | – | – | – | -2.46 | -4.23 | 7.49 | -4.13 | -4.32 | -1.7 | -5.89 | C[C@@]1(C(=O)Nc2ccc(F)nc2)CCCN1c1nc(Nc2cc(C3CC3)n[nH]2)c2cccn2n1 | -1.18 |
